Reference: ChEMBL document CHEMBL5518232, “Discovery of New Tricyclic Oxime Sampangine Derivatives as Potent Antifungal Agents for the Treatment of Cryptococcosis and Candidiasis” (J Med Chem, 2024)
Converted amounts (≈) assume the structure as drawn. The source made the active and inactive calls. The rule behind the calls is not given here.

What was measured:
[1] = system: Candida albicans; assay: In vivo antifungal activity against Candida albicans 0304103 infected in […] ICR mouse model assessed as reduction in fungal burden in kidney at 5 mg/kg, ip measured for 5 days in presence of fluconazole (reference value: 7.37 log10CFU/g); format: functional; settings: time 5 day
[2] = system: Candida albicans; assay: Inhibition of biofilm formation in Candida albicans 0304103 at 2 ug/ml incubated for 24 hrs in presence of fluconazole by microplate based analysis relative to control; format: functional
[3] = system: Candida albicans; assay: Antifungal activity against Candida albicans 0304103 assessed as reversal of ERG11 expression by measuring fold change at 16 ug/ml incubated for 24 hrs in presence of fluconazole by RT-PCR analysis (reference value: 8.8); format: functional; settings: dose 16 µg/ml
[4] = system: Candida albicans; assay: Inhibition of biofilm formation in Candida albicans 0304103 at 2 ug/ml incubated for 24 hrs by microplate based analysis relative to control; format: functional
[5] = system: Cryptococcus neoformans; assay: Inhibition of biofilm formation in Cryptococcus neoformans H99 at 0.063 ug/ml incubated for 24 hrs by microplate based analysis relative to control; format: functional
[6] = system: Candida albicans; assay: Antifungal activity against Candida albicans SC5314 assessed as reduction in fungal growth incubated for 48 hrs by liquid based microdilution method; format: functional
[7] = system: Cryptococcus neoformans; assay: Antifungal activity against Cryptococcus neoformans H99 assessed as reduction in fungal growth incubated for 72 hrs by liquid based microdilution method; format: functional
[8] = system: Candida albicans; assay: Antifungal activity against Candida albicans 0304103 assessed as downregulation of APH5 expression at 8 ug/ml incubated for 24 hrs in presence of fluconazole by RT-PCR analysis; format: functional, organism-based; settings: dose 8.0 µg/ml
[9] = system: Cryptococcus neoformans; assay: Antifungal activity against Cryptococcus neoformans H99 assessed as inhibition of capsule growth at 0.063 to 2 ug/ml measured after 24 hrs by laser confocal microscopy based analysis; format: functional, organism-based; settings: dose 0.063-2 µg/ml
[10] = system: Cryptococcus neoformans; assay: Antifungal activity against Cryptococcus neoformans H99 assessed as inhibition of fungal growth incubated for 72 hrs by time growth curve assay; format: functional, organism-based; settings: dose 0.13-2 µg/ml
[11] = system: Candida parapsilosis; assay: Synergistic antifungal activity against Candida parapsilosis 20090 assessed as inhibition of fungal growth incubated for 48 hrs in presence of fluconazole by checkerboard microdilution assay; format: functional, organism-based
[12] = system: Candida albicans; assay: In vivo antifungal activity against Candida albicans 0304103 infected in […] ICR mouse model assessed as reduction in fungal burden in kidney at 5 mg/kg, ip measured for 5 days (reference value: 7.37 log10CFU/g); format: functional; settings: time 5 day
[13] = system: Candida albicans; assay: Antifungal activity against Candida albicans 0304103 assessed as downregulation of CDR1 expression at 16 ug/ml incubated for 24 hrs in presence of fluconazole by RT-PCR analysis; format: functional, organism-based; settings: dose 16.0 µg/ml
[14] = system: Candida albicans; assay: Antifungal activity against Candida albicans 0304103 assessed as log reduction in fungal growth at 8 ug/ml incubated for 48 hrs by time growth curve assay (reference value: 7.38 log10CFU/ml); format: functional; settings: dose 8 µg/ml
[15] = system: Nakaseomyces glabratus; assay: Antifungal activity against Candida glabrata 9073 assessed as reduction in fungal growth incubated for 48 hrs by liquid based microdilution method; format: functional
[16] = system: Cryptococcus neoformans; assay: Antifungal activity against Cryptococcus neoformans H99 assessed as log reduction in fungal growth at 2 ug/ml incubated for 72 hrs by time growth curve assay (reference value: 7.65 log10CFU/ml); format: functional; settings: dose 2 µg/ml
[17] = system: Candida albicans; assay: Antifungal activity against Candida albicans 0304103 assessed as inhibition of fungal growth at 8 ug/ml incubated for 48 hrs in presence of fluconazole by time growth curve assay; format: functional, organism-based; settings: dose 8.0 µg/ml
[18] = system: Candida albicans; assay: Antifungal activity against Candida albicans 0304103 assessed as reduction in fungal growth incubated for 48 hrs by liquid based microdilution method; format: functional
[19] = system: Candida albicans; assay: Synergistic antifungal activity against Candida albicans 0304103 assessed as fractional inhibitory concentration index by measuring ratio of MIC80 for compound and synergetic / MIC80 for compound alone + MIC80 for fluconazole synergetic / MIC80 for fluconazole alone; format: functional
[20] = system: Clavispora lusitaniae; assay: Synergistic antifungal activity against Candida lusitaniae 9150 assessed as inhibition of fungal growth incubated for 48 hrs in presence of fluconazole by checkerboard microdilution assay; format: functional, organism-based
[21] = system: Candida albicans; assay: Synergistic antifungal activity against Candida albicans 0304103 assessed as inhibition of fungal growth incubated for 48 hrs in presence of fluconazole by checkerboard microdilution assay; format: functional
[22] = Effective permeability of the compound across blood brain barrier incubated for 12 hrs by PAMPA assay; format: ADME; settings: read-out: Peff
[23] = system: Candida albicans; assay: Inhibition of biofilm formation in Candida albicans 0304103 at 0.125 ug/ml incubated for 24 hrs by microplate based analysis relative to control; format: functional
[24] = system: Candida tropicalis; assay: Synergistic antifungal activity against Candida tropicalis 10186 assessed as inhibition of fungal growth incubated for 48 hrs in presence of fluconazole by checkerboard microdilution assay; format: functional, organism-based
[25] = system: Candida albicans; assay: Antifungal activity against Candida albicans 0304103 assessed as inhibition of fungal growth at 32 ug/ml incubated for 72 hrs by time growth curve assay; format: functional, organism-based; settings: dose 32.0 µg/ml
[26] = system: Candida albicans; assay: In vivo antifungal activity against Candida albicans SC5314 infected in […] ICR mouse model assessed as reduction in fungal burden in kidney at 10 mg/kg, ip measured for 5 days in presence of fluconazole; format: functional; settings: time 5 day
[27] = system: Candida albicans; assay: Antifungal activity against Candida albicans 0304103 assessed as downregulation of GCA2 expression at 8 ug/ml incubated for 24 hrs in presence of fluconazole by RT-PCR analysis; format: functional, organism-based; settings: dose 8.0 µg/ml
[28] = system: Candida albicans; assay: Antifungal activity against Candida albicans 0304103 assessed as downregulation of GCA1 expression at 8 ug/ml incubated for 24 hrs in presence of fluconazole by RT-PCR analysis; format: functional, organism-based; settings: dose 8.0 µg/ml
[29] = system: [Candida] auris; assay: Synergistic antifungal activity against Candida auris 0029 assessed as inhibition of fungal growth incubated for 48 hrs in presence of fluconazole by checkerboard microdilution assay; format: functional, organism-based; settings: Candidozyma auris
[30] = system: Candida albicans; assay: Antifungal activity against Candida albicans 0304103 assessed as downregulation of ERG11 expression at 16 ug/ml incubated for 24 hrs in presence of fluconazole by RT-PCR analysis; format: functional, organism-based; settings: dose 16.0 µg/ml
[31] = system: Candida albicans; assay: In vivo antifungal activity against Candida albicans SC5314 infected in […] ICR mouse model assessed as reduction in fungal burden in kidney at 10 mg/kg, ip measured for 5 days; format: functional, organism-based; settings: time 5.0 day
[32] = system: Pichia kudriavzevii; assay: Synergistic antifungal activity against Candida krusei 10153 assessed as inhibition of fungal growth incubated for 48 hrs in presence of fluconazole by checkerboard microdilution assay; format: functional, organism-based
[33] = system: Candida albicans; assay: Antifungal activity against Candida albicans 0304103 assessed as downregulation of TEC1 expression at 8 ug/ml incubated for 24 hrs in presence of fluconazole by RT-PCR analysis; format: functional, organism-based; settings: dose 8.0 µg/ml
[34] = system: Candida albicans; assay: Antifungal activity against Candida albicans 0304103 assessed as downregulation of RLM1 expression at 8 ug/ml incubated for 24 hrs in presence of fluconazole by RT-PCR analysis; format: functional, organism-based; settings: dose 8.0 µg/ml
[35] = system: Candida tropicalis; assay: Antifungal activity against Candida tropicalis 10186 assessed as reduction in fungal growth incubated for 48 hrs by liquid based microdilution method; format: functional
[36] = system: Cryptococcus neoformans; assay: Antifungal activity against Cryptococcus neoformans H99 assessed as inhibition of capsule growth 2 ug/ml measured after 24 hrs by laser confocal microscopy based analysis relative to control; format: functional; set-up: scale not given: the % may be the effect or the level left; settings: dose 2 µg/ml
[37] = system: Cryptococcus neoformans; assay: In vivo antifungal activity against Cryptococcus neoformans H99 infected in cryptococcal meningitis ICR mouse model assessed as reduction in fungal burden in brain at 5 mg/kg, ip measured for 5 days (reference value: 8.18 log10CFU/g); format: functional; settings: time 5 day
[38] = Antifungal activity against Cryptococcus gattii VGI ATCC 14116 assessed as reduction in fungal growth incubated for 72 hrs by liquid based microdilution method; format: functional
[39] = system: Cryptococcus neoformans; assay: Antifungal activity against Cryptococcus neoformans ATCC 34877 assessed as reduction in fungal growth incubated for 72 hrs by liquid based microdilution method; format: functional
[40] = system: Candida albicans; assay: Antifungal activity against Candida albicans 0304103 assessed as inhibition of filamentation at 2 ug/ml incubated for 3 hrs by inverted cell microscope based analysis; format: functional, organism-based; settings: dose 2.0 µg/ml

With `CO/N=C1/c2ccsc2C(=O)c2c(C)noc21` the Activity [1] was 5.31 log10CFU/g, the inhibition at 2 µg/mL [2] was 50% and the “fold change (FC)” value [3] was 0.8. For the same compound, the inhibition at 2 µg/mL [4] was ~30%, the inhibition at 0.063 µg/mL [5] was > 90% and the MIC80 [6] was > 64 µg/mL. The MIC80 [7] was 0.016 µg/mL (≈ 0.0644 µM), the Activity [8] was “Active” and the Activity [9] was “Active”. The Activity [10] was “Dose-Dependent Effect”, the Activity [11] was “inactive” and the Activity [12] was 5.73 log10CFU/g. The Activity [13] was “Active”, the Activity [14] was 6.13 log10CFU/ml and the MIC80 [15] was > 64 µg/mL. For the same compound, the Activity [16] was 6.22 log10CFU/ml, the Activity [17] was “Active” and the MIC80 [18] was 32 µg/mL (≈ 129 µM). For the same compound, the “fractional inhibitory concentration index (FICI)” value [19] was 0.078, the Activity [20] was “inactive” and the MIC80 [21] was 2 µg/mL. The Papp at 12 h [22] was 8.34 ×10⁻⁶ cm/s, the inhibition at 0.125 µg/mL [23] was 40% and the Activity [24] was “inactive”. The Activity [25] was “Active”, the Activity [26] was 5.02 log10CFU/g and the Activity [27] was “Active”. The Activity [28] was “Active”, the Activity [29] was “inactive” and the Activity [30] was “Active”. For the same compound, the Activity [31] was “Active”, the Activity [32] was “inactive” and the Activity [33] was “Active”. The Activity [34] was “Active”, the MIC80 [35] was 16 µg/mL (≈ 64.4 µM) and the Activity [36] was 100%. For the same compound, the Activity [37] was 7.96 log10CFU/g, the MIC80 [38] was 4 µg/mL (≈ 16.1 µM) and the MIC80 [39] was 0.13 µg/mL (≈ 0.524 µM). The Activity [40] was “Active”.
